Experimental data published in patent US5703113A, “Benzopyran derivatives” (priority 1992, dated 1997).

How the values were obtained:
normotensive rats = assay: Decrease of blood pressure on normotensive rats measured by average arterial tension; format: in vivo, Wistar rats; design: Pulse: unit not given beside the values; Average arterial tension / Decrease (of average arterial tension): unit not given here
Protocol: 2. Decrease of blood pressure on normotensive rats measured by average arterial tension
Wistar rats of both sexes weighing 230-260 g were used in the experiments. The rats were narcotised by 40 mg/kg of pentobarbital. The trachea was mounted and a polyethylene canula was introduced into the trachea, vena jugularis sinester and to the arteria carotis communis sinester. The substances to be examined were introduced into the organism of the animal through the duodenum. The pulsatory, systolic and diastolic blood pressure and the pulse were continuously measured by using a Statham type tensiometer head and haemodynamic measuring system produced by the Hungarian firm Experimetria Kft. After the blood pressure has become stable 0.75 μg of adrenaline were administered intravenously to measure the effect of alpha-adrenergic receptors on the blood pressure. After the hypertension has ceased 0.1 μg/kg of isoproterenole is added in order to characterize the activity of the β-adrenerg receptors. After tachycardia has ceased the test compound was administered i.d. and the treatment with the receptor stimulants was repeated after an hour in order to characterize the effect of the test compound on adrenergic receptor subclasses.
Change of the blood pressure on normotensive rats measured on six test animals

[1] = tested on: potassium canal (isolated arteria mesenterica anterior); assay: Potassium canal binding ("bandage") and selectivity on isolated arteria mesenterica anterior of rabbits; conditions: isolated rabbit mesenteric artery; KCl vs adrenaline contraction, TEA medium
Protocol: 1. […] Rabbits of both sexes weighing 2000-2500 g were anesthetized by a hit at the nape, the abdominal wall was cut open and the arteria mesenterica anterior was mounted after exsanguination. The artery was put into a Krebs solution of a temperature of 37° C. infiltrated with carbogene while removing the interstitial residues. Then a 2 mm wide spiral is cut from the artery and this artery stripe is prestretched in an organ pot in Krebs solution of a temperature of 37° C., infiltrated with carbogene, by a stretching of 0.5 g. In the experiment Hugo Basile type dynamometer heads, Hugo Basile type amplifiers and Perkin Elmer type potentiometer have been used for amplifying and fixing the signs. Two parallel organs were used for the qualitative tests. One of them was contracted by adding 30 mmoles of KCl after an incubation time of 1 hour, the other one by 5 μmoles of adrenaline. Then the arteries were relaxed by the cumulative addition of the substance to be examined. The system was washed with a Krebs solution containing 30 mmoles of tetraethyl ammonium bromide (TEA) and the organs were incubated for 30 minutes in a TEA-containing medium. After incubation the organs were again contracted with potassium and noradrenaline and a dilatation was induced by using the substance to be examined. In a quantitative test organs contracted with 5 μmoles of noradrenaline were relaxed with the substance to be examined and the dose inducing a 50% dilatation was determined.

[2] = 1 mg/kg i.d., time 0 min (baseline)
[3] = 5 mg/kg i.d., time 0 min (baseline)
[4] = 10 mg/kg i.d., time 0 min (baseline)

| Compound | Average arterial tension (normotensive rats; [2]) | Pulse (normotensive rats; [2]) | Average arterial tension (normotensive rats; 1 mg/kg i.d., time 1 min) | Decrease (of average arterial tension) (normotensive rats; 1 mg/kg i.d., time 1 min) | Pulse (normotensive rats; 1 mg/kg i.d., time 1 min) | Average arterial tension (normotensive rats; 1 mg/kg i.d., time 10 min) | Decrease (of average arterial tension) (normotensive rats; 1 mg/kg i.d., time 10 min) | Pulse (normotensive rats; 1 mg/kg i.d., time 10 min) | Average arterial tension (normotensive rats; 1 mg/kg i.d., time 30 min) | Decrease (of average arterial tension) (normotensive rats; 1 mg/kg i.d., time 30 min) | Pulse (normotensive rats; 1 mg/kg i.d., time 30 min) | Average arterial tension (normotensive rats; 1 mg/kg i.d., time 60 min) | Decrease (of average arterial tension) (normotensive rats; 1 mg/kg i.d., time 60 min) | Pulse (normotensive rats; 1 mg/kg i.d., time 60 min) | Mechanism of effect [1] | Selectivity [1] | also measured |
| --- | --- | --- | --- | --- | --- | --- | --- | --- | --- | --- | --- | --- | --- | --- | --- | --- | --- |
| COc1cc2c(cc1OC)[C@@H](N1CCCC1=O)[C@H](O)C(C)(C)O2 (racemic) [Example 1, (+/-)-6,7-dimethoxy-3,4-dihydro-2,2-dimethyl-trans-4-(2-oxo-1-pyrrolidinyl)-2H-benzo(b)pyran-3-ol] | 107 ± 11 | 394 ± 27 | 56 ± 6 | -51 | 403 ± 34 | 56 ± 6 | -51 | 400 ± 31 | 49 ± 4 | -45 | 400 ± 31 | 71 ± 20 | -36 | 382 ± 31 | Potassium canal activator | selective |  |
| COc1cc2c(cc1Cl)[C@@H](N1CCCC1=O)[C@H](O)C(C)(C)O2 (racemic) [Example 10, (+/-)-6-chloro-7-methoxy-3,4-dihydro-2,2-dimethyl-trans-4-(2-oxo-1-pyrrolidinyl)-2H-benzo (b) pyran-3-ol] |  |  |  |  |  |  |  |  |  |  |  |  |  |  | Potassium canal activator | selective | Average arterial tension (normotensive rats; [3]): 108 ± 15; Pulse (normotensive rats; [3]): 402 ± 4; Average arterial tension (normotensive rats; 5 mg/kg i.d., time 1 min): 62 ± 3; Decrease (of average arterial tension) (normotensive rats; 5 mg/kg i.d., time 1 min): -46; Pulse (normotensive rats; 5 mg/kg i.d., time 1 min): 418 ± 18; Average arterial tension (normotensive rats; 5 mg/kg i.d., time 10 min): 68 ± 6; Decrease (of average arterial tension) (normotensive rats; 5 mg/kg i.d., time 10 min): -40; Pulse (normotensive rats; 5 mg/kg i.d., time 10 min): 436 ± 18; Average arterial tension (normotensive rats; 5 mg/kg i.d., time 30 min): 96 ± 15; Decrease (of average arterial tension) (normotensive rats; 5 mg/kg i.d., time 30 min): -12; Pulse (normotensive rats; 5 mg/kg i.d., time 30 min): 424 ± 10; Average arterial tension (normotensive rats; 5 mg/kg i.d., time 60 min): 109 ± 26; Decrease (of average arterial tension) (normotensive rats; 5 mg/kg i.d., time 60 min): +1; Pulse (normotensive rats; 5 mg/kg i.d., time 60 min): 396 ± 13 |
| COc1cc2c(cc1C#N)[C@@H](N1CCCC1=O)[C@H](O)C(C)(C)O2 (racemic) [Example 15, (+/-)-6-cyano-7-methoxy-3,4-dihydro-2,2-dimethyl-trans-4-(2-oxo-1-pyrrolidinyl)-2H-benzo (b) pyran-3-ol] | 125 ± 13 | 412 ± 45 | 92 ± 10 | -33 | 439 ± 42 | 103 ± 5 | -22 | 430 ± 45 | 118 ± 15 | -7 | 430 ± 45 | 122 ± 10 | -3 | 412 ± 37 | Potassium canal activator | selective |  |
| COc1cc2c(cc1Br)[C@@H](N1CCCC1=O)[C@H](O)C(C)(C)O2 (relative stereo) [Example 9, (+/-) 16-bromo-7-methoxy-3,4-dihydro-2,2-dimethyl-trans-4-(2-oxo-1-pyrrolidinyl)-2H-benzo (b) pyran-3-ol] |  |  |  |  |  |  |  |  |  |  |  |  |  |  | Potassium canal activator | selective | Average arterial tension (normotensive rats; [4]): 117 ± 19; Pulse (normotensive rats; [4]): 406 ± 51; Average arterial tension (normotensive rats; 10 mg/kg i.d., time 1 min): 119 ± 16; Decrease (of average arterial tension) (normotensive rats; 10 mg/kg i.d., time 1 min): +2; Pulse (normotensive rats; 10 mg/kg i.d., time 1 min): 406 ± 51; Average arterial tension (normotensive rats; 10 mg/kg i.d., time 10 min): 58 ± 5; Decrease (of average arterial tension) (normotensive rats; 10 mg/kg i.d., time 10 min): -59; Pulse (normotensive rats; 10 mg/kg i.d., time 10 min): 436 ± 62; Average arterial tension (normotensive rats; 10 mg/kg i.d., time 30 min): 65 ± 15; Decrease (of average arterial tension) (normotensive rats; 10 mg/kg i.d., time 30 min): -52; Pulse (normotensive rats; 10 mg/kg i.d., time 30 min): 430 ± 63; Average arterial tension (normotensive rats; 10 mg/kg i.d., time 60 min): 87 ± 18; Decrease (of average arterial tension) (normotensive rats; 10 mg/kg i.d., time 60 min): -30; Pulse (normotensive rats; 10 mg/kg i.d., time 60 min): 430 ± 63 |
| COc1cc2c(cc1[N+](=O)[O-])[C@@H](N1CCCC1=O)[C@H](O)C(C)(C)O2 (relative stereo) [Example 11] | 121 ± 21 | 388 ± 10 | 115 ± 11 | -6 | 373 ± 15 | 97 ± 23 | -24 | 394 ± 20 | 105 ± 18 | -16 | 382 ± 18 | 107 ± 12 | -14 | 382 ± 18 | Potassium canal activator | selective |  |
| CC1(C)Oc2ccc(C#N)cc2C(N2CCCC2=O)C1O (stereo not drawn) [BRL 34915, reference compound] | 112 ± 9 | 368 ± 44 | 45 ± 2 | -67 | 368 ± 31 | 45 ± 2 | -67 | 382 ± 25 | 49 ± 4 | -63 | 377 ± 19 | 61 ± 11 | -51 | 373 ± 12 | Potassium canal activator | selective |  |
